Experiments:
[1] = target: Bromodomain-containing protein 4 (Homo sapiens, UniProt O60885); assay: Inhibition of BRD4 BD1 (unknown origin) by TR-FRET assay
MCF7 = assay: Antiproliferative activity against human MCF7 cells assessed as reduction in cell viability incubated for 72 hrs by MTT assay; format: functional, cell-based; conditions: MCF7, 72 h
HT-29 = assay: Antiproliferative activity against human HT-29 cells assessed as reduction in cell viability incubated for 72 hrs by MTT assay; format: functional, cell-based; conditions: HT-29, 72 h
HepG2 [2] = assay: Inhibition of c-myc expression in human HepG2 cells at 0.625 to 2.5 uM incubated for 24 hrs by Western blot analysis; format: functional, cell-based; conditions: dose 0.625-2.5 µM
HepG2 [3] = assay: Inhibition of colony formation in human HepG2 cells at 0.625 to 10 uM incubated for 8 days with drug replacement every 2 days by crystal violet staining based imaging analysis; format: functional, cell-based; conditions: dose 0.625-10 µM, time 8.0 day
HepG2 [4] = assay: Inhibition of colony formation in human HepG2 cells at 10 uM incubated for 8 days with drug replacement every 2 days by crystal violet staining based imaging analysis; format: functional; conditions: HepG2, 192 h, time 8 day
HepG2 [5] = assay: Antimigratory activity against human HepG2 cells assessed as inhibition of cell migration at 0.625 to 5 uM measured upto 24 hrs by wound healing assay; format: functional, cell-based; conditions: dose 0.625-5 µM
HepG2 [6] = assay: Antimigratory activity against human HepG2 cells assessed as decrease in MMP-9 expression at 0.625 to 2.5 uM incubated 24 hrs by Western blot analysis; format: functional, cell-based; conditions: dose 0.625-2.5 µM
HepG2 [7] = assay: Antimigratory activity against human HepG2 cells assessed as increase in E-cadherin expression at 0.625 to 2.5 uM incubated 24 hrs by Western blot analysis; format: functional, cell-based; conditions: dose 0.625-2.5 µM
HepG2 [8] = assay: Antimigratory activity against human HepG2 cells assessed as increase in Occludin expression at 0.625 to 2.5 uM incubated 24 hrs by Western blot analysis; format: functional, cell-based; conditions: dose 0.625-2.5 µM
HepG2 [9] = assay: Induction of cell cycle arrest in human HepG2 cells assessed as accumulation at G2/M phase at 0.625 uM incubated for 24 hrs by flow cytometry (Rvb= 14.05%); format: functional
HepG2 [10] = assay: Induction of cell cycle arrest in human HepG2 cells assessed as accumulation at G0/G1 phase at 1.25 uM incubated for 24 hrs by flow cytometry (Rvb= 46.5%); format: functional
HepG2 [11] = assay: Induction of cell cycle arrest in human HepG2 cells assessed as accumulation at S phase at 1.25 uM incubated for 24 hrs by flow cytometry (Rvb= 20.1%); format: functional
HepG2 [12] = assay: Induction of cell cycle arrest in human HepG2 cells assessed as accumulation at G2/M phase at 1.25 uM incubated for 24 hrs by flow cytometry (Rvb= 14.05%); format: functional
HepG2 [13] = assay: Induction of cell cycle arrest in human HepG2 cells assessed as accumulation at G0/G1 phase at 2.5 uM incubated for 24 hrs by flow cytometry (Rvb= 46.5%); format: functional
HepG2 [14] = assay: Induction of cell cycle arrest in human HepG2 cells assessed as accumulation at S phase at 2.5 uM incubated for 24 hrs by flow cytometry (Rvb= 20.1%); format: functional
HepG2 [15] = assay: Induction of cell cycle arrest in human HepG2 cells assessed as accumulation at G2/M phase at 2.5 uM incubated for 24 hrs by flow cytometry (Rvb= 14.05%); format: functional
HepG2 [16] = assay: Induction of cell cycle arrest in human HepG2 cells assessed as accumulation at S phase at 5 uM incubated for 24 hrs by flow cytometry (Rvb= 20.1%); format: functional
HepG2 [17] = assay: Induction of cell cycle arrest in human HepG2 cells assessed as accumulation at G2/M phase at 5 uM incubated for 24 hrs by flow cytometry (Rvb= 14.05%); format: functional
HepG2 [18] = assay: Induction of apoptosis in human HepG2 cells assessed as necrotic cells at 0.625 uM incubated for 24 hrs by Annexin-V/PI staining based flow cytometry (Rvb=0.85%); format: functional
HepG2 [19] = assay: Induction of apoptosis in human HepG2 cells assessed as necrotic cells at 1.25 uM incubated for 24 hrs by Annexin-V/PI staining based flow cytometry (Rvb=0.85%); format: functional
HepG2 [20] = assay: Induction of apoptosis in human HepG2 cells assessed as necrotic cells at 2.5 uM incubated for 24 hrs by Annexin-V/PI staining based flow cytometry (Rvb=0.85%); format: functional
HepG2 [21] = assay: Induction of apoptosis in human HepG2 cells assessed as necrotic cells at 5 uM incubated for 24 hrs by Annexin-V/PI staining based flow cytometry (Rvb=0.85%); format: functional
HepG2 [22] = assay: Induction of apoptosis in human HepG2 cells assessed as early apoptotic cells at 0.625 uM incubated for 24 hrs by Annexin-V/PI staining based flow cytometry (Rvb=4.48%); format: functional
HepG2 [23] = assay: Induction of apoptosis in human HepG2 cells assessed as early apoptotic cells at 1.25 uM incubated for 24 hrs by Annexin-V/PI staining based flow cytometry (Rvb=4.48%); format: functional
HepG2 [24] = assay: Induction of apoptosis in human HepG2 cells assessed as early apoptotic cells at 5 uM incubated for 24 hrs by Annexin-V/PI staining based flow cytometry (Rvb=4.48%); format: functional
HepG2 [25] = assay: Induction of apoptosis in human HepG2 cells assessed as late apoptotic cells at 0.625 uM incubated for 24 hrs by Annexin-V/PI staining based flow cytometry (Rvb=0.66%); format: functional
HepG2 [26] = assay: Induction of apoptosis in human HepG2 cells assessed as late apoptotic cells at 1.25 uM incubated for 24 hrs by Annexin-V/PI staining based flow cytometry (Rvb=0.66%); format: functional
HepG2 [27] = assay: Induction of apoptosis in human HepG2 cells assessed as late apoptotic cells at 2.5 uM incubated for 24 hrs by Annexin-V/PI staining based flow cytometry (Rvb=0.66%); format: functional
HepG2 [28] = assay: Induction of apoptosis in human HepG2 cells assessed as viable cells at 0.625 uM incubated for 24 hrs by Annexin-V/PI staining based flow cytometry (Rvb=94.0%); format: functional; conditions: read-out: Activity
HepG2 [29] = assay: Induction of apoptosis in human HepG2 cells assessed as viable cells at 1.25 uM incubated for 24 hrs by Annexin-V/PI staining based flow cytometry (Rvb=94.0%); format: functional; conditions: read-out: Activity
HepG2 [30] = assay: Induction of apoptosis in human HepG2 cells assessed as viable cells at 5 uM incubated for 24 hrs by Annexin-V/PI staining based flow cytometry (Rvb=94.0%); format: functional; conditions: read-out: Activity
HepG2 [31] = assay: Induction of apoptosis in human HepG2 cells assessed as increase in p21 level at 0.625 to 2.5 uM incubated for 24 hrs by Western blot analysis; format: functional, cell-based; conditions: dose 0.625-2.5 µM
HepG2 [32] = assay: Induction of apoptosis in human HepG2 cells assessed as total apoptotic cells at 0.625 uM incubated for 24 hrs by Annexin-V/PI staining based flow cytometry (Rvb=5.14%); format: functional
HepG2 [33] = assay: Induction of apoptosis in human HepG2 cells assessed as total apoptotic cells at 2.5 uM incubated for 24 hrs by Annexin-V/PI staining based flow cytometry (Rvb=5.14%); format: functional
HepG2 [34] = assay: Induction of apoptosis in human HepG2 cells assessed as total apoptotic cells at 5 uM incubated for 24 hrs by Annexin-V/PI staining based flow cytometry (Rvb=5.14%); format: functional

CC(=O)Nc1ccc(Oc2ccc(F)cc2F)c(-c2ccc3[nH]c(=O)c(C)nc3c2)c1
IC50 [1]: 82.3 nM | IC50 (MCF7): 22.1 µM | IC50 (HT-29): > 50 µM | inhibition (HepG2 [2]): Dose-Dependent Effect | inhibition (HepG2 [3]): Dose-Dependent Effect | inhibition at 10 µM (HepG2 [4]): 80% | inhibition (HepG2 [5]): Dose-Dependent Effect | Activity (HepG2 [6]): Dose-Dependent Effect | Activity (HepG2 [7]): Dose-Dependent Effect | Activity (HepG2 [8]): Dose-Dependent Effect | Activity (HepG2 [9]): 15.5% | Activity (HepG2 [10]): 51% | Activity (HepG2 [11]): 10.2% | Activity (HepG2 [12]): 22.6% | Activity (HepG2 [13]): 53.3% | Activity (HepG2 [14]): 9.5% | Activity (HepG2 [15]): 24.4% | Activity (HepG2 [16]): 12.4% | Activity (HepG2 [17]): 21% | Activity (HepG2 [18]): 0.8% | Activity (HepG2 [19]): 0.83% | Activity (HepG2 [20]): 0.9% | Activity (HepG2 [21]): 0.84% | Activity (HepG2 [22]): 5.3% | Activity (HepG2 [23]): 6.32% | Activity (HepG2 [24]): 10.4% | Activity (HepG2 [25]): 0.96% | Activity (HepG2 [26]): 1.37% | Activity (HepG2 [27]): 1.39% | viability at 0.625 µM (HepG2 [28]): 92.9% | viability at 1.25 µM (HepG2 [29]): 91.5% | viability at 5 µM (HepG2 [30]): 87.5% | Activity (HepG2 [31]): Dose-Dependent Effect | Activity (HepG2 [32]): 6.26% | Activity (HepG2 [33]): 8.61% | Activity (HepG2 [34]): 11.66%

From ChEMBL document CHEMBL5236660, “Design, synthesis, and biological evaluation of quinoxalinone derivatives as potent BRD4 inhibitors” (Bioorg Med Chem, 2023)
